Assay results published in article PMC9421654, “Discovery of Substituted Di(pyridin-2-yl)-1,2,4-thiadiazol-5-amines as Novel Macrofilaricidal Compounds for the Treatment of Human Filarial Infections” (Journal of Medicinal Chemistry, 2022).
Values after ≈ are worked out from the molar mass of the structure shown. Read-outs that look alike come from different tables or passages of the source. Marks after values point to notes of the source that are not given here.

Experiments:
[1] = Liver microsome metabolic stability assay, mouse; assay type: in vitro ADME; details: 3 μM, 30 min; for Rat Microsomes: Tables 2 and 3, footnote: tested in the mouse liver microsome assay
Procedure: (§1) Liver Microsome Metabolic Stability Assay: Incubations were performed at 37 °C in a Dubnoff Shaking water bath using 2 mL 96-well incubation plates. Liver microsome protein concentration was 0.3 mg/mL the final concentration of NADPH was 1 mM. Substrate concentrations are 3µM, incubation time is 30 minutes, and all tests are done in triplicate. The incubation was conducted in 200 mM Phosphate buffer containing 2 mM magnesium chloride, pH=7.4 and the total incubation volume was 0.5 mL. Samples were analyzed via LC-MS/MS and reported as percentage remaining after 30minute incubation, which can then be converted to half-life and intrinsic clearance. […]

[2] = system: O. gutturosa adult male worms; test: O. gutturosa adult worm ex vivo assay, motility; assay type: cell-based, Onchocerca gutturosa; details: Onchocerca gutturosa
In short: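 Adult male O. gutturosa from naturally infected cattle were cultured in supplemented MEM at 37 °C, 5% CO2, with four worms per concentration in serial 1-in-4 dilutions. Motility (0–10 scale) was scored every 24 h to 120 h. EC50 (geomean, n=2) for motility reduction came from 4PL fits, and viability was checked by MTT at 120 h.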

[3] = Liver microsome metabolic stability assay, human; assay type: in vitro ADME; details: 3 μM, 30 min
Procedure: as §1

[4] = LogD measurement (octanol-water); assay type: physicochemical
In short: (§2)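 Human and rat liver microsomes (0.3 mg/mL) with 1 mM NADPH and 3µM substrate, 30 minutes at 37 °C in pH 7.4 phosphate/MgCl2, triplicate; LC-MS/MS percentage remaining. LogD: octanol/aqueous buffer (pH 7.4, 2.2, 6.8, 5), 24 h shaking at room temperature. Kinetic solubility: 200 µM, 2% DMSO, 24 h, filtered.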

[5] = system: O. gutturosa adult male worms; test: O. gutturosa adult worm ex vivo assay, MTT/formazan viability; assay type: cell-based, Onchocerca gutturosa; details: Onchocerca gutturosa, supplement; SD in brackets in the PDF table; read-out: O. gutturosa EC50 (uM) MTT viability inhibition
In short: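 Adult male worms from naturally infected Gambian cattle were kept individually in MEM with 10% newborn calf serum at 37 °C, 5% CO2; four worms per concentration. Motility was scored 0-10 every 24 h to 120 h as a percentage of maximum, with ≥50% reduction versus untreated counted active. Afterwards, MTT (0.5 mg/mL, 30 min) formazan was read at 490 nm.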

[6] = Kinetic solubility measurement; assay type: physicochemical; details: for solubility kinetic at 24 h: 10 mM DMSO stock solutions
In short: as §2

O. volvulus L5 larvae [7] = test: O. volvulus L5 ex vivo assay, motility; assay type: cell-based; details: Onchocerca volvulus, 504 h, read-out: O. volvulus L5 % inhibition of motility
Procedure: O. volvulus larvae (L4) were prepared using cryopreserved O. volvulus L3 cultured in a medium containing 1:1 NCTC-109 and IMDM (Iscove’s modified Dulbecco’s medium) supplemented with Glutamax (1×) and 2× Antibiotic-Antimycotic (Life Technologies). This culturing medium was then added in transwell 24-well plates containing human umbilical vein endothelial cell (HUVEC) monolayers, containing the L4 larvae. A week prior to conducting an assay, the cultured O. volvulus larvae (L5) were transferred into a Petri dish containing fresh medium. Aliquots of 8–10 worms were retrieved from the Petri dish and placed inside new transwells over newly seeded HUVEC monolayers in the medium described above. After the transfer of O. volvulus L5 to the plates, the test compounds were dissolved in DMSO, added to each well, and incubated at 37 °C in a 5% CO2. The media containing freshly prepared compounds were partially replaced every 2–3 days for 14 days. After 14 days, the media were completely replaced. The untreated control contains the media described above with a final concentration of 0.05% DMSO. The motility was measured every 2–3 days with the following scale: 100% motility, constant coiling movement; 75% motility, slower coiling; 50% motility, slow and intermittent movement; 25% motility, very slow movement or twitching; and 0% motility, no movement. The motility was measured visually by two operators. On day 28, the viability of O. volvulus L5 was measured by MTT. Following washout and incubation during 1 h in PBS under 5% CO2, worms were observed under an inverted microscope. Worms were considered dead if no staining or less than 50% within the worm was observed. Otherwise, if worms stained blue or more than 50% stained, then they are considered alive. All test treatments were performed in duplicates. Significance was determined using a t test.

O. volvulus L5 larvae [8] = test: O. volvulus L5 ex vivo assay, MTT viability; assay type: cell-based, Onchocerca volvulus; details: Day 21, 1 uM
Procedure: This culturing medium was then added in transwell 24-well plates containing human umbilical vein endothelial cell (HUVEC) monolayers, containing the L4 larvae. A week prior to conducting an assay, the cultured O. volvulus larvae (L5) were transferred into a Petri dish containing fresh medium. […] After the transfer of O. volvulus L5 to the plates, the test compounds were dissolved in DMSO, added to each well, and incubated at 37 °C in a 5% CO2. The media containing freshly prepared compounds were partially replaced every 2–3 days for 14 days. After 14 days, the media were completely replaced. The untreated control contains the media described above with a final concentration of 0.05% DMSO. […] The motility was measured visually by two operators. […] Following washout and incubation during 1 h in PBS under 5% CO2, worms were observed under an inverted microscope. Worms were considered dead if no staining or less than 50% within the worm was observed. Otherwise, if worms stained blue or more than 50% stained, then they are considered alive. All test treatments were performed in duplicates. Significance was determined using a t test.

[9] = Liver S9 metabolic stability assay, rat; assay type: in vitro ADME; details: 3 μM, 60 min
In short: (§3)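 Rat and human liver S9 (0.75 and 1.2 mg/ml) with 1 mM NADPH, 0.5 mM UDPGA, 2.5 mM GSH, 0.05 mg/ml PAPS, 3µM substrate, 60 min at 37 °C in Tris/MgCl2 pH 7.4. Mouse microsomes 0.3 mg/mL, 1 mM NADPH, 3µM, 30 min, phosphate pH 7.4. LC-MS/MS, % remaining, triplicate.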

[10] = Liver S9 metabolic stability assay, human; assay type: in vitro ADME; details: 3 μM, 60 min
In short: as §3

[11] = read-out: O. gutturosa EC50 μM (SD), ex vivo adult worm motility reduction, SD in brackets
[12] = supplement, read-out: measured logD
[13] = read-out: O. gutturosa EC50 (uM) motility inhibition, supplement, SD in brackets in the PDF table

Row | SMILES | Rat Microsomes [1] | EC50 [2, 11] | Human Microsomes [3] | logD at 24 h ([4]; pH 7.4, read-out: logD) | logD at 24 h [4, 12] | EC50 [5] | solubility kinetic at 24 h [6] | EC50 [2, 13] | inhibition at 1 µM (O. volvulus L5 larvae [7]) | EC50 ([2]; read-out: O. gutturosa EC50, adult worm motility, bound stated) | O. volvulus L5 % inhibition of viability (O. volvulus L5 larvae [8]) | Rat S9 metabolic stability [9] | Human S9 metabolic stability [10] | fold less soluble than 47 ([6]; 24 h) | Rat Microsomes, (m) ([1]; Table 1, tested in the mouse not rat)
1 | Cc1cccnc1Nc1nc(-c2ncc(OC(C)C)cn2)ns1 [Compound 40, 3-(5-Isopropoxypyrimidin-2-yl)-N-(3-methylpyridin-2-yl)-1,2,4-thiadiazol-5-amine] | 90^c % remaining | 2.35 µM | 96^c % remaining | 2.9 | 2.9 | 2.9 µM | 12.3 µM (≈ 4.04 µg/mL) |  |  |  |  |  |  |  | 
2 | Cc1cccnc1Nc1nc(-c2cc(C(=O)N(C)C)c(OC(C)C)cn2)ns1 [Compound 17] | 90 % remaining | 0.63 µM | 91 % remaining | 2.3 | 2.3 | 0.5 µM | 154 µM (≈ 61.6 µg/mL) | 0.626 µM |  |  |  |  |  |  | 
3 | CC(C)c1cccnc1Nc1nc(-c2ccc(OC3CC3)cn2)ns1 [Compound 23, 3-(5-Cyclopropoxypyridin-2-yl)-N-(3-isopropylpyridin-2-yl)-1,2,4-thiadiazol-5-amine] |  | 0.04 µM |  | 2.5 | 2.5 | 0.012 µM |  | 0.038 µM | 100% | < 0.1 µM | 100% | 78 % remaining | 39 % remaining |  | 
4 | CC(C)Oc1cnc(-c2nsc(Nc3ncccc3N(C)C)n2)cc1C(F)(F)F [Compound 34] | 93 % remaining | 0.04 µM | 98 % remaining | 2.9 | 2.9 | 0.53 µM |  | 0.036 µM |  |  |  |  |  | 10 fold | 
5 | Cc1cccnc1Nc1n[nH]c(-c2ccc(OC3CCOCC3)cn2)n1 [Compound 8, 3-Methyl-N-{5-[5-(oxan-4-yloxy)pyridin-2-yl]-4H-1,2,4-triazol-3-yl}pyridin-2-amine] |  | 0.01 µM | 92 % remaining |  | 2 | 0.004 µM | 202 µM (≈ 71.1 µg/mL) | 0.009 µM |  |  |  |  |  |  | 70 (m)^e % remaining
